# In PubChem BioAssay (NCI):
#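 Protocol summary: plate cells (96-well), add compound at 5 concentrations, incubate 48 h, interpolate endpoints linearly. GI50 is the concentration that inhibits growth by half. TGI: total growth inhibition.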
# How the values were obtained:
# Assay in all cases: NCI anticancer screen, dose series, 48 h
# [1] = tested on: K-562 leukemia
# [2] = tested on: MOLT-4 leukemia
# [3] = tested on: OVCAR-4 ovarian
# [4] = tested on: CCRF-CEM leukemia
# [5] = tested on: RPMI-8226 leukemia
# [6] = tested on: HS 578T breast
# [7] = tested on: LOX IMVI melanoma
smiles,measurement,setting,value
C#Cc1ccc(-n2c(/C=C/c3ccc(Cl)c(F)c3)nc3ncccc3c2=O)cc1,GI50,[1],337 nM
same,TGI,[1],> 100000 nM
same,GI50,[2],546 nM
same,TGI,[2],> 100000 nM
same,GI50,[3],270 nM
same,TGI,[3],1030 nM
same,GI50,[4],290 nM
same,TGI,[4],> 100000 nM
same,GI50,[5],351 nM
same,TGI,[5],2030 nM
same,GI50,[6],419 nM
same,TGI,[6],> 100000 nM
same,GI50,[7],183 nM
same,TGI,[7],504 nM
